Entries after “also recorded” stand apart in the source; their conditions may differ.
Assays:
[1] = system: CASK^floxed; Calb2-cre mice; assay: Accelerating rotarod experiment (locomotor coordination/balance); type: in vivo; settings: P70, n=3, p≤0.05, untreated mice cannot balance on rotarod, FIG. 5B
Excerpt: (§1) FIG. 5A-5B.-Blocking mitochondrial ROS protects cerebellum from degenerating in absence of CASK. […] Cerebellum undergoes atrophy after P30. […] (FIG. 5B) Cerebellum undergoes atrophy in CASK^floxed; Calb2-cre mice leading to locomotor incoordination. The data represents latency time to fall in an accelerating rotarod experiment on P70. CASK^floxed. […] Data represents mean and SEM from n=3. * indicates p≤ 0.05.

[2] = system: CASK^floxed; Calb2-cre mice; assay: Cerebellar atrophy/degeneration after CASK deletion in cerebellum, images of cerebellum with SkQ1 treatment; type: in vivo
Excerpt: as §1
With no evidence for a defect in neuronal development and biochemical evidence for mitochondrial ROS mediated neuronal death, Applicant next decided to determine if CASK loss results in the degeneration of formed neurons. In the human brain without CASK, Applicant observed astrogliosis as well as microgliosis, both hallmarks of neuronal damage and neuronal loss (Patel, Hegert et al., 2022). In the setting of a human brain without CASK, the presumptive neuronal loss occurs during the early development of the cerebellum, making it hard to further interpret the results. […]

SMILES: CC1=C(C)C(=O)C(CCCCCCCCCC[P+](c2ccccc2)(c2ccccc2)c2ccccc2)=CC1=O [SkQ1, 10-(6′-Plastoquinonyl)decyltriphenylphosphonium]
- latency time to fall in accelerating rotarod experiment (balance) [1]: balance is completely rescued
- cerebellar atrophy (images of cerebellum) ([2]; CASK^floxed, untreated cerebellum atrophies after P30 (P30 vs P100 images), FIG. 5A right panel SkQ1-treated): rescue of cerebellar atrophy
- cerebellar degeneration / neurodegeneration caused by CASK deletion ([2]; CASKfloxed, summary statement on FIG. 5A-5B): can halt CASK-linked cerebellar degeneration; also recorded: effectively inhibits neurodegeneration resulting from CASK-loss

Reference: patent US20250312360A1, “MITOCHONDRIAL ANTIOXIDANT TREATMENT FOR CASK-LINKED NEURODEVELOPMENTAL DISORDERS” (Virginia Tech Intellectual Properties, Inc., priority 2022, published 2025)
